Assays:
[1] = Foam height test, Standard Test Method for Foaming Properties of Surface-Active Agents (ASTM 1173-07); type: physicochemical; conditions: 49° C.; for Foam height at time t = 0: t = 0 min; for Foam height at time t = 1: t = 1 min; for Foam height at time t = 2: t = 2 min; for Foam height at time t = 3: t = 3 min; for Foam height at time t = 4: t = 4 min; for Foam height at time t = 5: t = 5 min
Excerpt: The Standard Test Method for Foaming Properties of Surface-Active Agents (ASTM 1173-07) for 0.1 wt % and 1.0 wt % was used to determine the foaming properties of the amphoteric compounds of the formula 1 described herein. This method generates foam under low-agitation conditions and is generally used for moderate- and high-foam surfactants. This test gathers data on initial foam height and foam decay. Foam decay provides information on foam stability.
The apparatus for carrying out this test includes a jacketed column and a pipet. The jacketed column serves as a receiver, while the pipet delivers the surface-active solution.
Solutions of each surface-active agent to be measured were prepared in borosilicate glass jars a day ahead of time, using ambient temperature ingredients, and were slowly rolled overnight to homogenize. The solutions were then removed from the rollers and equilibrated in a constant temperature bath (49° C.+/−1° C.) for at least 1 hour before measurement. The solution of the amphoteric compound to be tested was added to the receiver (50 mL) and to the pipet (200 mL). The pipet was positioned above the receiver and opened. As the solution fell and made contact with the solution in the receiver, foam was generated. When the pipet was empty, the time was noted and an initial foam height was recorded. The foam height was recorded each minute for five minutes. Exact size specifications for the glassware can be found in ASTM 1173-07. The foam height results for each amphoteric compound 1 and representative standards are listed below in Tables 1 (0.1% concentration) and 2 (1% concentration).

[2] = Critical micelle concentration from surface tension (Wilhelmy plate, K100C Tensiometer); type: physicochemical; conditions: deionized water, ambient temperature
Experimental: The critical micelle concentration (CMC) is an important characteristic of a surfactant, and the CMC values were determined for the amphoteric compounds of formula 1. The CMC is defined as the concentration at which micelle formation first begins, and for surface tension determination of CMC, is typically assigned as the concentration of the intersection of two straight lines through the data, where the first line is the linear portion of the initial decline in surface tension with increasing surfactant concentration, and the second is the line of constant surface tension.
The critical micelle concentration was determined from plots of surface tension as a function of the logarithm of active surfactant concentration. Surface tension was measured via the Wilhelmy plate technique. In this method, the downward force of a rigorously clean plate probe that just contacts the liquid surface of the test sample is measured, and the surface tension is calculated from knowledge of the contact angle the liquid makes with the probe surface and the length of the probe plate.
A K100C Tensiometer (Kruss GmbH) was used to measure surface tension of solutions in a glass sample vessel. All measurements were made under ambient temperature conditions.
The tensiometer was equipped with a computer-controlled microdispensing and aspirating system to automate surfactant concentration adjustments of the test solution while maintaining constant solution volume between successive measurements. A roughened platinum plate probe was used. Cleanliness of probe, sample vessel, and microdispensing system was verified after cleaning between samples by measuring the surface tension of pure deionized water run through the system as a control.
100 mL of the 1 mg/L surfactant solution was added to the clean sample vessel and placed in the instrument. The plate probe was rinsed with deionized water and flame treated to combust off residual organic impurities, then mounted in position in the tensiometer. The experiment was initiated and run through the LabDesk version 3.2.2 (Kruss GmbH) software.
The surface tension measurements were run sequentially (and automatically) from most dilute to most concentrated by incrementally injecting known volume aliquots of the 10,000 mg/L surfactant solution into the sample, homogenizing the sample after injection by stirring for 30 seconds via a magnetic stir bar in the solution, and then aspirating out equal volume that was added to the sample vessel to keep the total sample volume constant for each measurement.
The sample vessel was then automatically moved into measurement position, and the surface tension measurement was made and recorded. This sequence was repeated until all concentrations had been measured.
The active surfactant concentration range spanned from 1 mg/L to 5000 mg/L over 50 concentration increments, equally spaced on a logarithmic scale over the full range of concentrations measured.
The sample at each concentration was measured 10 times, and the average of the 10 measures was plotted against the logarithm of the surfactant concentration.
After completing the full range of concentrations, the software provided best-fit lines to estimate CMC, and these regression lines were manually adjusted as needed to give the broadest range of linear behavior for each line.

Row | Compound | Foam height at time t = 0 ([1]; 1 g/L (0.1 weight %)) [mm] | Foam height at time t = 1 ([1]; 1 g/L (0.1 weight %)) [mm] | Foam height at time t = 2 ([1]; 1 g/L (0.1 weight %)) [mm] | Foam height at time t = 3 ([1]; 1 g/L (0.1 weight %)) [mm] | Foam height at time t = 4 ([1]; 1 g/L (0.1 weight %)) [mm] | Foam height at time t = 5 ([1]; 1 g/L (0.1 weight %)) [mm] | Foam height at time t = 0 ([1]; 10 g/L (1.0 weight %)) [mm] | Foam height at time t = 1 ([1]; 10 g/L (1.0 weight %)) [mm] | Foam height at time t = 2 ([1]; 10 g/L (1.0 weight %)) [mm] | Foam height at time t = 3 ([1]; 10 g/L (1.0 weight %)) [mm] | Foam height at time t = 4 ([1]; 10 g/L (1.0 weight %)) [mm] | Foam height at time t = 5 ([1]; 10 g/L (1.0 weight %)) [mm] | Critical micelle concentration (CMC) [2] [mg/L]
1 | CCCCCCCCCCCCOC(=O)CCC[N+](C)(C)CC(O)CS(=O)(=O)[O-] (stereo not shown) [Example 4, 3-(3-(Lauryloxycarbonylpropyl)dimethylammonio)-2-hydroxypropanesulfonate] | 142 | 139 | 135 | 132 | 129 | 127 | 173 | 170 | 167 | 162 | 158 | 154 | –
2 | CCCCCCCCCCCCOC(=O)CCCC[N+](C)(C)CC(O)CS(=O)(=O)[O-] (stereo not shown) [Example 9, 3-(4-(Lauryloxycarbonylbutyl)dimethylammonio)-2-hydroxypropanesulfonate] | 185 | 175 | 173 | 170 | 170 | 170 | 195 | 190 | 180 | 180 | 180 | 180 | –
3 | CCCCCCCCCCCCNC(=O)CCC[N+](C)(C)CC(O)CS(=O)(=O)[O-] (stereo not shown) [Example 12, 3-((4-laurylamino-4-oxobutyl)dimethylammonio)-2-hydroxy-propanesulfonate] | 160 | 157 | 155 | 153 | 151 | 150 | 182 | 180 | 178 | 177 | 176 | 175 | 80.9
4 | (3-Lauryloxycarbonylpropyl)dimethylammonioacetate [Example 3] | 171 | 170 | 170 | 169 | 169 | 169 | 165 | 162 | 160 | 158 | 158 | 156 | 24.2
5 | (4-Laurylamino-4-oxobutyl)dimethylammonioacetate [Example 11] | 174 | 172 | 171 | 171 | 170 | 170 | 182 | 180 | 179 | 178 | 178 | 177 | 76.5
6 | (4-Lauryloxycarbonylbutyl)dimethylammonioacetate [Example 8] | – | – | – | – | – | – | 185 | 175 | 170 | 170 | 170 | 165 | –
7 | (5-Laurylamino-5-oxopentyl)dimethylammonioacetate [Example 20] | 180 | 175 | 170 | 170 | 170 | 170 | 175 | 170 | 170 | 170 | 165 | 160 | –

Further lines, results first:

Row | Foam height at time t = 0 ([1]; 1 g/L (0.1 weight %)) [mm] | Foam height at time t = 1 ([1]; 1 g/L (0.1 weight %)) [mm] | Foam height at time t = 2 ([1]; 1 g/L (0.1 weight %)) [mm] | Foam height at time t = 3 ([1]; 1 g/L (0.1 weight %)) [mm] | Foam height at time t = 4 ([1]; 1 g/L (0.1 weight %)) [mm] | Foam height at time t = 5 ([1]; 1 g/L (0.1 weight %)) [mm] | Foam height at time t = 0 ([1]; 10 g/L (1.0 weight %)) [mm] | Foam height at time t = 1 ([1]; 10 g/L (1.0 weight %)) [mm] | Foam height at time t = 2 ([1]; 10 g/L (1.0 weight %)) [mm] | Foam height at time t = 3 ([1]; 10 g/L (1.0 weight %)) [mm] | Foam height at time t = 4 ([1]; 10 g/L (1.0 weight %)) [mm] | Foam height at time t = 5 ([1]; 10 g/L (1.0 weight %)) [mm] | Critical micelle concentration (CMC) [2] [mg/L] | Compound
8 | 157 | 156 | 153 | 151 | 149 | 147 | 173 | 171 | 170 | 170 | 170 | 169 | 104.5 | CCCCCCCCCCCCNC(=O)CCCC[N+](C)(C)CC(O)CS(=O)(=O)[O-] (stereo not shown) [Example 21, 3-((5-laurylamino-5-oxopentyl)dimethylammonio)-2-hydroxypropanesulfonate]
9 | – | – | – | – | – | – | – | – | – | – | – | – | 962 | CCCCCCCCCCCC[N+](C)(C)CCCS(=O)(=O)[O-] [N-lauryl-N,N-dimethyl-3-ammonio-1-propanesulfonate, reference compound]
10 | 160 | 159 | 158 | 158 | 158 | 158 | 174 | 172 | 171 | 171 | 170 | 170 | 12.7 | cocamidopropyl betaine [reference compound]
11 | – | – | – | – | – | – | – | – | – | – | – | – | 9.5 | cocamidopropyl hydroxysultaine [reference compound]
